Reference: patent US7767707B2, “Fused pyrazolyl compounds having an aminoalkylcarbonyl group” (Yung Shin Pharm. Ind. Co., Ltd., priority 2007, dated 2010)

Test system: NCI H-226 cells
Test: Cytotoxicity MTT assay against NCI H-226 cells
Assay type: cell-based
Conditions: NCI H-226 cells (4 × 10^4), 72 hrs treatment, mean ± S.D. of three experiments
Description: The target compound 5, 6 and related succinate (A), glutamate (B) derivatives were evaluated in a MTT assay against NCI H226 cells, and the results are shown in Table 1.
The NCI H-226 cells were maintained in RPMI-1640 medium supplemented with 10% fetal bovine serum (GIBCO/BRL), penicillin (100 unit/mL)/streptomycin (100 μg/mL) (GIBCO/BRL) and 1% L-glutamine (GIBCO/BRL) at 37° C. in a humidified atmosphere containing 5% CO2. Logarithmically growing tumor cells were used for all experiments.
The cytotoxicity was assessed using MTT assay.^1 NCI H-226 cells (4×10^4) were treated separately with compounds A, B, 5, and 6 for 72 h. After treatment, the cells were collected, washed with cold PBS, and then added 10 μL of MTT solution (5 mg/mL)(Sigma) with 50 μL of cells suspension in HBSS into 96-well plate and incubated them at 37° C. in the dark for 2 h. Treatment of living cells with MTT produces a dark blue formazan product, whereas no such staining is observed in dead cells. The formazan product was dissolved by adding 140 μL DMSO and then the absorbance was measured on an ELISA reader at a best wavelength of 570 nm.
Values are expression as the mean ±S.D. of three independent experiments. Student's t tests were used to assess the statistical significance of the differences, with “p” values of less than 0.05 being considered statistically significant.

## NCC(=O)OCc1ccc(-c2nn(Cc3ccccc3)c3ccccc23)o1 [Compound 5]
Conc. 0.10 μM
  MTT %: 85.8 ± 1.7%
Conc. 1.0 μM
  MTT %: 18.5 ± 3.9%
Conc. 10.0 μM
  MTT %: 0%
